From PubChem BioAssay AID588640 (The Scripps Research Institute Molecular Screening Center, 2011) come the findings set out here.

Activity calls are given as the source filed them.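 The calls were made as follows: active = p38 protein level shifted at least 30% from the DMSO control, either lower or higher; inactive = the rest.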

The experiment relates to HCT116 p38 protein level, western blot, 24 h. Briefly: total p38 protein level change, either direction, late-stage follow-up, counter-screen for KLF5 inhibitor project, cell-based, HCT116 colorectal carcinoma, chemiluminescent western blot (AID 588640). As to conditions: at 10 µM; for inhibition: stronger effect = higher value; for fold change: measured here: p38 band fold change vs DMSO. In general terms: The purpose of a counterscreen is to sort out artefacts and off-target activity.

As to `CN(C(=O)CNC(=O)/C=C/c1cccc(Cl)c1)C1CCS(=O)(=O)C1` (stereo unspecified), the inhibition (in general, the drop in the measured response relative to a control, in per cent) is -15.7% (inactive) and the fold change worked out at 1.16.
In the case of `CN(C(=O)CNC(=O)/C=C/c1cccc(Cl)c1)C1CCS(=O)(=O)CC1`, the inhibition was 35.2% and the fold change came to 0.647.
For `CN(C(=O)COC(=O)/C=C/c1cccc([N+](=O)[O-])c1)C1CCS(=O)(=O)C1` (stereo unspecified), the inhibition was 36.3% and the fold change is 0.658.
